Reference: patent US20240226115A1, “AXL INHIBITOR COMPOUNDS” (ARCUS BIOSCIENCES, INC., priority 2021, published 2024)

Biological target: T1, recombinant human MER (Homo sapiens, UniProt Q12866)
T1 construct: purchased Invitrogen
T1 sequence (Q12866 21-999): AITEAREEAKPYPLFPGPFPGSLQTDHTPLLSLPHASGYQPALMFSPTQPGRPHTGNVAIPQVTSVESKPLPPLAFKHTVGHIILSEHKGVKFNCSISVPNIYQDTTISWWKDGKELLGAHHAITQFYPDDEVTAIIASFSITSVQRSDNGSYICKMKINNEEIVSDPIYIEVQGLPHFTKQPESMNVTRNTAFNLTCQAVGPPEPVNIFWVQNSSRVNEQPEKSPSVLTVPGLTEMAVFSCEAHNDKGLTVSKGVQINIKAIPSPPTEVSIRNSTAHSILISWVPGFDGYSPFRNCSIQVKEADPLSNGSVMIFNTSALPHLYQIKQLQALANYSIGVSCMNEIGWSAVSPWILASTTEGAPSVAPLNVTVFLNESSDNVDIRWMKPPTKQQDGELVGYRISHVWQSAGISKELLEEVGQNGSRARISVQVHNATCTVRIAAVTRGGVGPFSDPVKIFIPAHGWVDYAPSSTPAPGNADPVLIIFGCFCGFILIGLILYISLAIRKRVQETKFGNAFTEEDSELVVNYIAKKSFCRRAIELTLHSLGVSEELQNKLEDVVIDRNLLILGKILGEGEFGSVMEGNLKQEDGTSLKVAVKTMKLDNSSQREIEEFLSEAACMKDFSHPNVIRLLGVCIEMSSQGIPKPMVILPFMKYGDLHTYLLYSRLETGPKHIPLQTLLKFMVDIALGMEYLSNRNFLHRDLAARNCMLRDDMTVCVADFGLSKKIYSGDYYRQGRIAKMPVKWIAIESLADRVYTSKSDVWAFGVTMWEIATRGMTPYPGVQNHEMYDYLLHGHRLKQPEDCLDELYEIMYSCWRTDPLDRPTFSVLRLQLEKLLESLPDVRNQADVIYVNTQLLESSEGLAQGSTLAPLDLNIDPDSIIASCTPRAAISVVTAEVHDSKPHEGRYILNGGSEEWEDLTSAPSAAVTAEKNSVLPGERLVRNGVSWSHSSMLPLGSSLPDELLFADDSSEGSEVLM
Experiment: HTRF KinEASE-TK biochemical potency, MER
Conditions: 1 nM MER, 700 μM ATP
How it was run: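 Enzyme preincubated with compound 1 h at RT; final 5 nM AXL or 1 nM TYRO3/MER, 800 nM TK substrate-biotin, 700 μM ATP, HEPES pH 7.4, MgCl2, 1% DMSO, 2 h at RT. HTRF 665/620 ratio read after streptavidin-XL665/cryptate antibody detection; percent activity relative to DMSO and pre-stopped controls.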

With O=C1NCCOc2cc(-c3n[nH]c4ncc(-c5ccc6c(c5)CCC(N5CC[C@@H](O)C5)CC6)cc34)ccc21 (stereo partly drawn) [Example 51, 8-(5-(7-((R)-3-Hydroxypyrrolidin-1-yl)-6,7,8,9-tetrahydro-5H-benzo[7]annulen-2-yl)-1H-pyrazolo[3,4-b]pyridin-3-yl)-3,4-dihydrobenzo[f][1,4]oxazepin-5(2H)-one] the IC50 was 100 to 1000 nM.

For O=C1NCCOc2cc(-c3n[nH]c4ncc(-c5ccc6c(c5)CCC(N5CCC5)CC6)cc34)ccc21 (centres unmarked) [Example 52, 8-(5-(7-(Azetidin-1-yl)-6,7,8,9-tetrahydro-5H-benzo[7]annulen-2-yl)-1H-pyrazolo[3,4-b]pyridin-3-yl)-3,4-dihydrobenzo[f][1,4]oxazepin-5(2H)-one], the IC50 was < 100 nM.

In the case of O=C1NCCOc2cc(-c3n[nH]c4ncc(-c5ccc6c(c5)CCNCC6)cc34)ccc21 [Example 53, 8-(5-(2,3,4,5-Tetrahydro-1H-benzo[d]azepin-7-yl)-1H-pyrazolo[3,4-b]pyridin-3-yl)-3,4-dihydrobenzo[f][1,4]oxazepin-5(2H)-one], the IC50 is reported as < 100 nM.

Work on O=C1NCCOc2cc(-c3n[nH]c4ncc(-c5ccc6c(c5)CCNC6)cc34)ccc21 [Example 54, 8-(5-(1,2,3,4-Tetrahydroisoquinolin-6-yl)-1H-pyrazolo[3,4-b]pyridin-3-yl)-3,4-dihydrobenzo[f][1,4]oxazepin-5(2H)-one] yielded an IC50 of 100 to 1000 nM.

For O=C1NCCOc2cc(-c3n[nH]c4ncc(-c5ccc6c(c5)CNCC6)cc34)ccc21 [Example 55, 8-(5-(1,2,3,4-Tetrahydroisoquinolin-7-yl)-1H-pyrazolo[3,4-b]pyridin-3-yl)-3,4-dihydrobenzo[f][1,4]oxazepin-5(2H)-one], the IC50 was 100 to 1000 nM.

In the case of C[C@@H]1CCCN1C1CCc2cc(F)c(-c3cnc4[nH]nc(-c5ccc6c(c5)OCCNC6=O)c4c3)cc2CC1 (stereo partly drawn) [Example 58, 8-(5-{3-Fluoro-7-[(2R)-2-methylpyrrolidin-1-yl]-6,7,8,9-tetrahydro-5H-benzo[7]annulen-2-yl}-1H-pyrazolo[3,4-b]pyridin-3-yl)-2,3,4,5-tetrahydro-1,4-benzoxazepin-5-one], the IC50 is reported as < 100 nM.

C[C@@H]1CNC(=O)c2ccc(-c3n[nH]c4ncc(-c5ccc6c(c5)CCC(N5CCC[C@H]5C)CC6)cc34)cc2O1 (stereo partly drawn) [Example 59, (2R)-2-Methyl-8-(5-{7-[(2R)-2-methylpyrrolidin-1-yl]-6,7,8,9-tetrahydro-5H-benzo[7]annulen-2-yl}-1H-pyrazolo[3,4-b]pyridin-3-yl)-2,3,4,5-tetrahydro-1,4-benzoxazepin-5-one] was tested, and the IC50 was < 100 nM.

With C[C@@H]1CCCN1C1CCc2ccc(-c3cnc4[nH]nc(-c5ccc6c(c5F)OCCNC6=O)c4c3)cc2CC1 (stereo partly drawn) [Example 60, 9-Fluoro-8-(5-{7-[(2R)-2-methylpyrrolidin-1-yl]-6,7,8,9-tetrahydro-5H-benzo[7]annulen-2-yl}-1H-pyrazolo[3,4-b]pyridin-3-yl)-2,3,4,5-tetrahydro-1,4-benzoxazepin-5-one] the IC50 was < 100 nM.

Compound C[C@@H]1CCCN1C1CCc2ccc(-c3cnc4[nH]nc(-c5cc6c(cc5F)C(=O)NCCO6)c4c3)cc2CC1 (stereo partly drawn) [Example 61, 7-Fluoro-8-(5-{7-[(2R)-2-methylpyrrolidin-1-yl]-6,7,8,9-tetrahydro-5H-benzo[7]annulen-2-yl}-1H-pyrazolo[3,4-b]pyridin-3-yl)-2,3,4,5-tetrahydro-1,4-benzoxazepin-5-one] has an IC50 of 100 to 1000 nM.

In the case of C[C@@H]1CCCN1C1CCc2ccc(-c3cnc4[nH]nc(-c5ccc6c(c5)O[C@@H](C)CNC6=O)c4c3)cc2CC1 (stereo partly drawn) [Example 62, (2S)-2-Methyl-8-(5-{7-[(2R)-2-methylpyrrolidin-1-yl]-6,7,8,9-tetrahydro-5H-benzo[7]annulen-2-yl}-1H-pyrazolo[3,4-b]pyridin-3-yl)-2,3,4,5-tetrahydro-1,4-benzoxazepin-5-one], the IC50 is reported as < 100 nM.

In the case of O=C1NCCOc2cc(-c3n[nH]c4ncc(-c5ccc6c(n5)CCC(N5CCCC5)CC6)cc34)ccc21 (centres unmarked) [Example 63, 8-{5-[7-(Pyrrolidin-1-yl)-5H,6H,7H,8H,9H-cyclohepta[b]pyridin-2-yl]-1H-pyrazolo[3,4-b]pyridin-3-yl}-2,3,4,5-tetrahydro-1,4-benzoxazepin-5-one], the IC50 is reported as 100 to 1000 nM.
